{"source": "patent US8653071B2", "about": "“α4β2 neuronal nicotinic acetylcholine receptor ligands” (Suven Life Sciences Limited, priority 2009, dated 2014)", "key": {"[1]": {"test_system": "Male Sprague Dawley rats", "assay": "Effect of test compounds on body weight gain in high fat fed rats", "format": "in vivo, rat", "details": "oral for 14 days, high fat diet fed rats", "description": "Effect of Test Compounds on Body Weight Gain in High Fat Fed Rats\nThe body weight gain suppressing properties of compounds of this invention were studied using a animal model of obesity.\nMale Sprague Dawley rats (150-160 grams) obtained from Reliance Life Sciences, India were used as experimental animals. Rats were fed with control diet (normal pellet diet) and lard based high fat diet (45% kcal diet) for 7-8 weeks. High fat diet fed animals was randomized according to their body weights. The animals were housed in a group of 3-4 per cage. One group of 10 rats received vehicle (2 mL/Kg) orally and another set of animals received compound of the formula (I) orally for 14 days. Body weight of the animals was recorded for first three consecutive days then it was recorded twice weekly. Weighed amount of food was given to the animals and food intake was recorded every 24 hour for the entire study period."}, "[2]": {"test_system": "Male Wister rats", "assay": "Reversal of formalin induced nociception", "format": "in vivo", "details": "p.o.; rat", "method": "Reversal of Formalin Induced Nociception\nThe anti-nociceptive properties of compounds of this invention were evaluated using a model of pain: the Formalin Induced Nociception model. Male Wister rats (230-280 grams) obtained from N. I. N. (National Institute of Nutrition, Hyderabad, India) was used as experimental animals.\nRats were habituated for 20 minutes in the arena before the experiment was started. Duration of licks, bites and flinches were noted from 0-10 minutes and 20-35 minutes after administration of formalin, subplantar into the right hind paw at concentrations of 5% v/v. 50 μL of water for injection was injected into the right hind paw of the rats of the sham group. Compounds of this invention were administered orally prior to formalin administration."}, "[3]": {"assay": "Rodent pharmacokinetic study", "format": "in vivo", "details": "Wistar, in vivo, Wister rat/Male", "procedure,_shortened": "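Rats, fasted overnight, received NCE orally (15 or 5 mg/kg) and intravenously (5 mg/kg) on day 0 and day 2. Jugular blood sampled pre-dose to 24 h (n=3); plasma NCE measured by LC-MS/MS. Cmax, Tmax, AUCt, T1/2 and bioavailability derived by non-compartmental analysis.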"}, "[4]": {"test_system": "Male Wister rats", "assay": "Object recognition task model", "format": "in vivo, rat", "details": "1 mg/kg, p.o.", "method": "Object Recognition Task Model\nThe cognition-enhancing properties of compounds of this invention were estimated using a model of animal cognition: the object recognition task model.\nMale Wister rats (230-280 grams) obtained from N. I. N. (National Institute of Nutrition, Hyderabad, India) was used as experimental animals. Four animals were housed in each cage. […] Also the rats were habituated to individual arenas for 1 hour in the absence of any objects.\nOne group of 12 rats received vehicle (1 mL/Kg) orally and another set of animals received compound of the formula (I) either orally or i.p., before one hour of the familiar (T1) and choice trial (T2).\nThe experiment was carried out in a 50×50×50 cm open field made up of acrylic. In the familiarization phase, (T1), the rats were placed individually in the open field for 3 minutes, in which two identical objects (plastic bottles, 12.5 cm height×5.5 cm diameter) covered in yellow masking tape alone (a1 and a2) were positioned in two adjacent corners, 10 cm. from the walls. After 24 hours of the (T1) trial for long-term memory test, the same rats were placed in the same arena as they were placed in T1 trial. Choice phase (T2) rats were allowed to explore the open field for 3 minutes in presence of one familiar object (a3) and one novel object (b) (Amber color glass bottle, 12 cm high and 5 cm in diameter). Familiar objects presented similar textures, colors and sizes. During the T1 and T2 trial, explorations of each object (defined as sniffing, licking, chewing or having moving vibrissae whilst directing the nose towards the object at a distance of less than 1 cm) were recorded separately by stopwatch. Sitting on an object was not regarded as exploratory activity, however, it was rarely observed.\nT1 is the total time spent exploring the familiar objects (a1+a2).\nT2 is the total time spent exploring the familiar object and novel object (a3+b).\nThe object recognition test was performed as described by Ennaceur, A., Delacour, J., 1988, A new one-trial test for neurobiological studies of memory in rats—Behavioural data, Behav. Brain Res., 31, 47-59."}, "[5]": {"test_system": "Male Sprague Dawley rats", "assay": "DRL-72s model of animal depression", "format": "in vivo", "details": "p.o.; rat", "method": "The antidepressant properties of compounds of this invention were evaluated using a model of animal depression: the DRL-72s model. Male Sprague Dawley rats were used as experimental animals. Rats are trained to lever press for a 4″ access to 0.025 ml of water for each correct response during daily 60 minute sessions. All testing takes place on weekdays only. At the beginning of each session, the house light is illuminated and remains lit until the session ends. No other stimuli are presented during testing. After successful lever press training, rats are then required to respond under a DRL-24 second schedule, where only lever presses that are separated by 24 seconds are reinforced. Upon stable responding on a DRL-24 second schedule (5-10 sessions), rats are trained on a DRL-72 second schedule until responding stabilizes at approximately 15% efficiency (approx 25-35 sessions). Specifically, rats receive a reinforcer for each response that is emitted at least 72 seconds after the previous response (IRT). […] Efficiency is recorded as number of reinforced responses÷total number of responses. After stable baseline responding is achieved, defined as responding for 4 consecutive sessions with no more than 10% variability, animals begin drug testing. Animals receive drug no more than 1× per week."}}, "data": [{"compound": "CNCC1CC2CC2N1c1cccnc1.Cl", "note": "(stereo not shown) [Example 4, N-[2-(Pyridin-3-yl)-2-azabicyclo[3.1.0]hex-3-ylmethyl]methylamine hydrochloride]", "values": [{"measurement": "Inference", "setting": "[1]", "value": "Active"}, {"measurement": "% Reduction in body weight gain compared to vehicle (Day 14)", "setting": "[1]; Day 14", "value": 3.3, "unit": "%"}, {"measurement": "Dose (reversal of formalin induced nociception)", "setting": "[2]", "value": "≦10 mg/kg, p.o."}, {"measurement": "AUC(0-t)", "setting": "[3]; 5 mg/kg, Intravenous", "value": "1670 ± 154", "unit": "ng·h/mL"}, {"measurement": "Cmax", "setting": "[3]; 5 mg/kg, Intravenous", "value": "956 ± 164", "unit": "ng/mL"}, {"measurement": "Tmax", "setting": "[3]; 5 mg/kg, Intravenous", "value": 0.08, "unit": "h"}, {"measurement": "half-life", "setting": "[3]; 5 mg/kg, Intravenous", "value": "5.82 ± 0.53", "unit": "h"}, {"measurement": "bioavailability", "setting": "[3]; 15 mg/kg Per-Oral vs 5 mg/kg Intravenous", "value": "105 ± 9", "unit": "%"}, {"measurement": "AUC(0-t)", "setting": "[3]; 15 mg/kg, Per-Oral", "value": "5280 ± 652", "unit": "ng·h/mL"}, {"measurement": "Cmax", "setting": "[3]; 15 mg/kg, Per-Oral", "value": "1560 ± 294", "unit": "ng/mL"}, {"measurement": "Tmax", "setting": "[3]; 15 mg/kg, Per-Oral", "value": "0.33 ± 0.14", "unit": "h"}, {"measurement": "half-life", "setting": "[3]; 15 mg/kg, Per-Oral", "value": "4.48 ± 0.76", "unit": "h"}, {"measurement": "Inference", "setting": "[4]", "value": "Active"}, {"measurement": "Exploration time mean ± S.E.M, Familiar object", "setting": "[4]; choice trial", "value": "7.64 ± 1.052", "unit": "s"}, {"measurement": "Exploration time mean ± S.E.M, Novel object", "setting": "[4]; choice trial", "value": "14.21 ± 2.364", "unit": "s"}, {"measurement": "Dose (DRL-72s)", "setting": "[5]", "value": "≧10 mg/kg, p.o."}]}]}
